Experimental data as given in ChEMBL document CHEMBL4715706, “Discovery of Benzotriazolo[4,3-d][1,4]diazepines as Orally Active Inhibitors of BET Bromodomains” (ACS Med Chem Lett, 2016).

Key:
Peregrin = target: T1, Peregrin (Homo sapiens, UniProt P55201); assay: Inhibition of BRPF1 (unknown origin) measured after 70 mins by TR-FRET assay
T1 sequence (P55201 whole entry): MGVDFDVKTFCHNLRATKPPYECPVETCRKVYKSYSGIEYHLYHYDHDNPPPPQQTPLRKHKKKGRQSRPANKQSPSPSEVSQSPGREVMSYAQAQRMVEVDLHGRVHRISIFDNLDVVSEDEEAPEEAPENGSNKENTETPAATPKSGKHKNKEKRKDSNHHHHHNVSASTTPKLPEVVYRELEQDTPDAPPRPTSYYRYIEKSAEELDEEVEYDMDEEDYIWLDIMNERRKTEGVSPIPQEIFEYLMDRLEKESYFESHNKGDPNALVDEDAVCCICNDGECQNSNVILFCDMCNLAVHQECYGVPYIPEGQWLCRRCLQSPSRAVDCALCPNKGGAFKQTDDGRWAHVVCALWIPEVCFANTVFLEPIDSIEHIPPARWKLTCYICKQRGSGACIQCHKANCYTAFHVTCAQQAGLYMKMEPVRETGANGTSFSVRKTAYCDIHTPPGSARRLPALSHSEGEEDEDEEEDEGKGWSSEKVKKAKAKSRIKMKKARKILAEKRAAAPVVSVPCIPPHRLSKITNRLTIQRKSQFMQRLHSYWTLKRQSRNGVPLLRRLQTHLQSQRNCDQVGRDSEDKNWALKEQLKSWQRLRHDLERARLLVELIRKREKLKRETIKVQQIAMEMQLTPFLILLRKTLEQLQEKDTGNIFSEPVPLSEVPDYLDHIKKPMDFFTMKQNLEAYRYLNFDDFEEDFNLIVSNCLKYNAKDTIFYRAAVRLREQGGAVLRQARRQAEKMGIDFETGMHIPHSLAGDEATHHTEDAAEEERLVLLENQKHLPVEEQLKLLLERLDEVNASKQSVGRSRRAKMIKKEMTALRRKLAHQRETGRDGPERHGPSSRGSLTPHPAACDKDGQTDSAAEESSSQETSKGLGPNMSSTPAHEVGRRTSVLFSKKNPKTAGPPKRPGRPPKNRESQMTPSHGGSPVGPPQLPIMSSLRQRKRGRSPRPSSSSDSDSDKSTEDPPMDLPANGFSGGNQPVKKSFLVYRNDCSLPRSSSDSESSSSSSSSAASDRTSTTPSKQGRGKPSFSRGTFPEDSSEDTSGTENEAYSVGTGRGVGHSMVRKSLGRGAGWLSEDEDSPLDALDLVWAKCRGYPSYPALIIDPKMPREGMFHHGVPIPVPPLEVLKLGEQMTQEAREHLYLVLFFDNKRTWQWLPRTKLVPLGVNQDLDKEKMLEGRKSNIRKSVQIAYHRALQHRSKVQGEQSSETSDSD

[1] = target: T2, Bromodomain-containing protein 9 (Homo sapiens, UniProt Q9H8M2); assay: Inhibition of His-tagged BRD9 (unknown origin) using biotinylated acetylated peptide as substrate measured after 20 mins by AlphaLISA assay
T2 sequence (Q9H8M2 whole entry): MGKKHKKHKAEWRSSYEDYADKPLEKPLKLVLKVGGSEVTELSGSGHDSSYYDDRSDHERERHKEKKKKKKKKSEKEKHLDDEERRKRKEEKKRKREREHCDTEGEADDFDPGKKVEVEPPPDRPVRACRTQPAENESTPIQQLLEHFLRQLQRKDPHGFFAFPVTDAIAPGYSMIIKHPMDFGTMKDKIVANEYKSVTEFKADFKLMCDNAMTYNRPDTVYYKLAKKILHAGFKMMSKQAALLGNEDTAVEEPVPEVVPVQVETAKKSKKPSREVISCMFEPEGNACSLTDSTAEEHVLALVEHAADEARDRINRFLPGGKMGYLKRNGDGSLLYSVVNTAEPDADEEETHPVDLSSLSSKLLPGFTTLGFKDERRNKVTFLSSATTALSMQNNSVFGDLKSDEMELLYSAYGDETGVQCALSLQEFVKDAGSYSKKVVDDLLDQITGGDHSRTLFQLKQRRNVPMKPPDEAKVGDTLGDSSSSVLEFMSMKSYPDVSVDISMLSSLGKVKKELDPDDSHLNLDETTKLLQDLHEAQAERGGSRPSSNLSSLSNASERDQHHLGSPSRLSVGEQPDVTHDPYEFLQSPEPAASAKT

[2] = target: T3, Bromodomain and PHD finger-containing protein 3 (Homo sapiens, UniProt Q9ULD4); assay: Inhibition of BRPF3 (unknown origin) measured after 70 mins by TR-FRET assay
T3 sequence (Q9ULD4 whole entry): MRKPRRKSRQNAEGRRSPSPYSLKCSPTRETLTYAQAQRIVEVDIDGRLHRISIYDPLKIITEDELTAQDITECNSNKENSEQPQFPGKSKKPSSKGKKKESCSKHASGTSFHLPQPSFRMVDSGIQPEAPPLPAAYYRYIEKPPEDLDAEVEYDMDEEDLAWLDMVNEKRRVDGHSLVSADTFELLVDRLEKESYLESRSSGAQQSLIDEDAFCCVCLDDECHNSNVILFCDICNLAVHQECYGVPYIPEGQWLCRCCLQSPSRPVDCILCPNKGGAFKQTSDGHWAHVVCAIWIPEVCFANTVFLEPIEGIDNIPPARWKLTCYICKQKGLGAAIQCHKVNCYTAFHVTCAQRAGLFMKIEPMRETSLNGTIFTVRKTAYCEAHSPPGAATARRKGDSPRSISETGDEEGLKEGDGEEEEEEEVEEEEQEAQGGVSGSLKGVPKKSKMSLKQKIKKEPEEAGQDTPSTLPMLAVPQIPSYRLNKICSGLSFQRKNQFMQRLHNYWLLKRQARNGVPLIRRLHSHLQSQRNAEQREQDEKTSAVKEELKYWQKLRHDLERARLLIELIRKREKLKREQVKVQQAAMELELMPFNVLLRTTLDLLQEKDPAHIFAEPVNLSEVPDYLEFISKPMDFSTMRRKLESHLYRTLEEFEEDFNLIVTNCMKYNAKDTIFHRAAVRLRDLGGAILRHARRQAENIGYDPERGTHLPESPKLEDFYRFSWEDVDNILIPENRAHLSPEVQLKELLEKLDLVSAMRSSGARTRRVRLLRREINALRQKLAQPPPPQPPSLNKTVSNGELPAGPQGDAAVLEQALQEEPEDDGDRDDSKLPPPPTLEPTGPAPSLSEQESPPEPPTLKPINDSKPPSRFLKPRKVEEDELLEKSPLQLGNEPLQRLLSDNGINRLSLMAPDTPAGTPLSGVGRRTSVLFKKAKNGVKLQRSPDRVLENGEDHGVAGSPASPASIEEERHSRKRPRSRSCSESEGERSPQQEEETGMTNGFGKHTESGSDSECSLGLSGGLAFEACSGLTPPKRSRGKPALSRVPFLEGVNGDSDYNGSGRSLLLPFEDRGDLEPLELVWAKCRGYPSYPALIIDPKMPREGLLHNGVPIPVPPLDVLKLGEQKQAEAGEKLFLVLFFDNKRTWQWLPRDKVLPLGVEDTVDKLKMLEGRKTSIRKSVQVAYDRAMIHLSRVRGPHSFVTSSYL

Measured: IC50

Cc1nnc2n1-c1ccc(-c3ccc(N)nc3)cc1N(c1ccc(Cl)cc1)C[C@H]2C
> 15 µM: all assays above
